We go through two compounds from patent US11136351B2 (priority 2016, dated 2021).

The subject of assay [1] is HVA calcium channels in rat DRG neurons. It counts as cell-based.
For assay [2], the system named is mouse HVA Ca^2+ channel. Type of assay: cell-based. Particulars: 50 μM.
Assay [3] addresses α7 nAChRs (Homo sapiens, UniProt P36544). The settings on record: cited from earlier work.
The target in assay [4] is T1, human α9α10 nAChR (Homo sapiens, UniProt Q9GZZ6+Q9UGM1).
T1 construct: expressed in transfected cells; host or cells: Xenopus laevis oocytes
Type of assay: cell-based. Particulars: 1 μM.

Assay [5] addresses rat α9α10 nAChRs (Rattus norvegicus, UniProt P43144+Q9JLB5). Particulars: cited from earlier work.
For assay [6], the target named is human α9α10 nAChRs (Homo sapiens, UniProt Q9GZZ6+Q9UGM1). Particulars: cited from earlier work.

Where a name gives a salt, the structure may show the parent alone. Read-outs that look alike come from different tables or passages of the source.

Sequence of rat α9α10 nAChRs (P43144 26-479 limits assumed): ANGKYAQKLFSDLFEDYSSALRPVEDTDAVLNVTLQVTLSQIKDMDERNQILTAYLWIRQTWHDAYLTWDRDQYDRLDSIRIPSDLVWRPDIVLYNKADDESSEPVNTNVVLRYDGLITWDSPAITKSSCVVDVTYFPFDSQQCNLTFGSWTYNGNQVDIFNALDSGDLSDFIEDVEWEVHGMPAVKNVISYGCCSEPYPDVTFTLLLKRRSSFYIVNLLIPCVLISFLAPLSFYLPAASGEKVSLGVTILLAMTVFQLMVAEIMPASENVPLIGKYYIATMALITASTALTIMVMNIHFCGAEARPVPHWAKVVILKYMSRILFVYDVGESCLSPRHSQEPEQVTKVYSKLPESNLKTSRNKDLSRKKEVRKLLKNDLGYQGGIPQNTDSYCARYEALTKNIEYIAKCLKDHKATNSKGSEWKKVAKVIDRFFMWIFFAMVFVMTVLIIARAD
Sequence of rat α9α10 nAChRs (Q9JLB5 25-447 limits assumed): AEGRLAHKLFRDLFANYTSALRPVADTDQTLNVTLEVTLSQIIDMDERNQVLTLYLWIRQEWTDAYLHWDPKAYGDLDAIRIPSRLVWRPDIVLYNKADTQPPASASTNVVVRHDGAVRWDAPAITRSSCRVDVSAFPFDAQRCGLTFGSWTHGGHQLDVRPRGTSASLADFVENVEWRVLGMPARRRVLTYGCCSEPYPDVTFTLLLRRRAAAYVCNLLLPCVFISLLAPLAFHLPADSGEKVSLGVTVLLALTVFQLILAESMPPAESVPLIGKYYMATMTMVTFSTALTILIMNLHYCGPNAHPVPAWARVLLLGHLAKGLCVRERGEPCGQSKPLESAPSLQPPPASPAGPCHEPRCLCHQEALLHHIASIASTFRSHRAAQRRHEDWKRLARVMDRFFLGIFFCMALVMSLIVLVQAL
Sequence of α7 nAChRs (P36544 23-502 limits assumed): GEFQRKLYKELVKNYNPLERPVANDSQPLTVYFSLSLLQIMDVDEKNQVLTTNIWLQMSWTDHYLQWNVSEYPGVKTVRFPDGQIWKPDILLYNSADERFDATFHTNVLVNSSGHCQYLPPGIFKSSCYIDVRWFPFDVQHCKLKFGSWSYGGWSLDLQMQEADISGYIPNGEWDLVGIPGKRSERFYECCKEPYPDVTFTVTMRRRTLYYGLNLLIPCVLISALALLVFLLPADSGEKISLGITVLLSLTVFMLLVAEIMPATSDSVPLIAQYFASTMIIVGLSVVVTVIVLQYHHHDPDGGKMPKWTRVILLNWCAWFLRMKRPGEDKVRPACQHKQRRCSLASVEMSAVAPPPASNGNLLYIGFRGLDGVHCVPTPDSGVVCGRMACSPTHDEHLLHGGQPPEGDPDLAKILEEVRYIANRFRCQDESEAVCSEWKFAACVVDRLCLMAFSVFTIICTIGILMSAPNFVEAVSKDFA
Sequence of human α9α10 nAChRs (Q9UGM1 26-479 limits assumed): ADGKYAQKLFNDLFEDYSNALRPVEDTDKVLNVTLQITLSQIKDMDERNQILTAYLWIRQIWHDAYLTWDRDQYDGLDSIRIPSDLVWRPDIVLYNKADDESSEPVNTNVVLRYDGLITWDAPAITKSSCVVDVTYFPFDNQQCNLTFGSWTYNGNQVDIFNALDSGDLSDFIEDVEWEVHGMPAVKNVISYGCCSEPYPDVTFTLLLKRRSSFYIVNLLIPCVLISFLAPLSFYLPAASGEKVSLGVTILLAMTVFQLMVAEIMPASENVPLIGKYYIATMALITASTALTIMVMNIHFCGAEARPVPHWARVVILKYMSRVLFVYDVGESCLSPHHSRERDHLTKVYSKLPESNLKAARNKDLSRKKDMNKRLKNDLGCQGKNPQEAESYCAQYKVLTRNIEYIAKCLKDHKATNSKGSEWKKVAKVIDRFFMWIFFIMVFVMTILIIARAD
Sequence of human α9α10 nAChRs (Q9GZZ6 25-450): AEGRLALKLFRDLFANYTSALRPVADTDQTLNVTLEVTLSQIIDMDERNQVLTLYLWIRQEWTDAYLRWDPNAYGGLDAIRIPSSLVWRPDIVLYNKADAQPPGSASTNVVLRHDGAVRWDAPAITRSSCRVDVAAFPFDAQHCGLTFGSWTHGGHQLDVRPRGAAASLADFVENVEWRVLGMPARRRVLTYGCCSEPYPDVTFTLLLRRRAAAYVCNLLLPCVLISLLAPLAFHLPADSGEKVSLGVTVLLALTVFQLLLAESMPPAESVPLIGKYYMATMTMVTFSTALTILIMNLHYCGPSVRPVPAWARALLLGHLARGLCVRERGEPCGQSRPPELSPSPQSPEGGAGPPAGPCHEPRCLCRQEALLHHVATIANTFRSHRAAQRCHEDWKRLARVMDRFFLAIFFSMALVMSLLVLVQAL
T1 sequence (Q9UGM1 26-479 limits assumed): as the sequence (Q9UGM1 26-479 limits assumed) above
T1 sequence (Q9GZZ6 25-450): as the sequence (Q9GZZ6 25-450) above

As to `NC[C@H](CC(=O)O)c1ccc(Cl)cc1` [Baclofen, R-(+)-baclofen hydrochloride], the “reversibility of IBa inhibition” value in assay [1] is given as “reversible on washout”. For the same compound, in assay [1] (50 μM), the “IBa I/Icontrol ± SEM (n)” value was 0.64 ± 0.018 (36), the “fraction of total IBa suppressed” value is ~35% and the “rat HVA Ca^2+ channel I/Icontrol ± SEM (n)” value was 0.64 ± 0.01 (33). Also, in assay [2], the “mouse HVA Ca^2+ channel I/Icontrol ± SEM (n)” value is 0.60 ± 0.03 (11) and the “peak ICa inhibition” value worked out at 41.5±2.7%.

Usually IC50 stands for the concentration at which inhibition is half-maximal. For Vc1.1, the half-inhibitory concentration (IC50) in assay [3] was ~7100 nM; in assay [5] it was 64 nM; in assay [6], 765 nM. For the same compound, the “human α9α10 nAChR I/Icontrol ± SEM (n)” value in assay [4] is 0.57 ± 0.020 (17). For the same compound, the “inhibition of HVA calcium currents by globular, ribbon and beads isomers” value in assay [1] is listed as “found to inhibit HVA calcium currents”. The “rat HVA Ca^2+ channel I/Icontrol ± SEM (n)” value in assay [1] (1 μM) is reported as 0.73 ± 0.03 (4).
